Measurements as given in patent US7022856B2, “Carboline derivatives” (LIlly Icos LLC., priority 2001, dated 2006).

The compounds below were run against T1, human recombinant PDE5 (Homo sapiens, UniProt O76074) (assay: cGMP-PDE inhibition, one-step assay with human recombinant PDE5). Settings: 0.15 μM 8-[H3]-cGMP, 30 min.
T1 construct: host or cells: Saccharomyces cerevisiae strain BJ2-54 (ATCC 74465)
Assay type: biochemical
Experimental: The compounds of structural formula (I) were tested for an ability to inhibit PDE5. The ability of a compound to inhibit PDE5 activity is related to the IC50 value for the compound, i.e., the concentration of inhibitor required for 50% inhibition of enzyme activity. The IC50 value for compounds pounds of structural formula (I) were determined using recombinant human PDE5.
Recombinant production of human PDE1B, PDE2, PDE4A, PDE4B, PDE4C, PDE4D, PDE5, and PDE7 was carried out similarly to that described in Example 7 of U.S. Pat. No. 5,702,936, incorporated herein by reference, except that the yeast transformation vector employed, which is derived from the basic ADH2 plasmid described in Price et al., Methods in Enzymology, 185, pp. 308–318 (1990), incorporated yeast ADH2 promoter and terminator sequences and the Saccharomyces cerevisiae host was the protease-deficient strain BJ2-54 deposited on Aug. 31, 1998 with the American Type Culture Collection, Manassas, Va., under accession number ATCC 74465. Transformed host cells were grown in 2×SC-leu medium, pH 6.2, with trace metals, and vitamins. After 24 hours, YEP medium-containing glycerol was added to a final concentration of 2×YET/3% glycerol. Approxiately 24 hr later, cells were harvested, washed, and stored at −70° C. […]
Cell pellets (29 g) were thawed on ice with an equal volume of Lysis Buffer (25 mM Tris HCl, pH 8, 5 mM MgCl2, 0.25 mM DTT, 1 mM benzamidine, and 10 μM ZnSO4). Cells were lysed in a Microfluidizer® (Microfluidics Corp.) using nitrogen at 20,000 psi. The lysate was centrifuged and filtered through 0.45 μm disposable filters. The filtrate was applied to a 150 mL column of Q SEPHAROSE® Fast-Flow (Pharmacia). The column was washed with 1.5 volumes of Buffer A (20 mM Bis-Tris Propane, pH 6.8, 1 mM MgCl2, 0.25 mM DTT, 10 μM ZnSO4) and eluted with a step gradient of 125 mM NaCl in Buffer A followed by a linear gradient of 125–1000 mM NaCl in Buffer A. Active fractions from the linear gradient were applied to a 180 mL hydroxyapatite column in Buffer B (20 mM Bis-Tris Propane (pH 6.8), 1 mM MgCl2, 0.25 mM DTT, 10 μM ZnSO4, and 250 mM KCl). After loading, the column was washed with 2 volumes of Buffer B and eluted with a linear gradient of 0–125 mM potassium phosphate in Buffer B. Active fractions were pooled, precipitated with 60% ammonium sulfate, and resuspended in Buffer C (20 mM Bis-Tris Propane, pH 6.8, 125 mM NaCl, 0.5 mM DTT, and 10 μM ZnSO4). The pool was applied to a 140 mL column of SEPHACRYL® S-300 HR and eluted with Buffer C. Active fractions were diluted to 50% glycerol and stored at −20° C.
cGMP-PDE activity of compounds of the present invention was measured using a one-step assay adapted from Wells et al., Biochim. Biophys. Acta, 384, 430 (1975). The reaction medium contained 50 mM Tris-HCl, pH 7.5, 5 mM magnesium acetate. 250 μg/ml 5′-Nucleotidase, 1 mM EGTA, and 0.15 μM 8-[H^3]-cGMP. Unless otherwise indicated, the enzyme used was a human recombinant PDE5 (ICOS Corp., Bothell, Wash.).
Compounds of the invention were dissolved in DMSO finally present at 2% in the assay.

Row | SMILES | IC50 [nM]
1 | CNc1ccc(C(=O)N2CCc3c([nH]c4ccccc34)C2c2ccc3c(c2)OCO3)cc1 (stereo not drawn) [Example 5, 1-(1-Benzo[1,3]dioxol-5-yl-1,3,4,9-tetrahydro-β-carbolin-2-yl)-1-(4-methylaminophenyl)methanone] | 200
2 | CN(C)c1ccc(C(=O)N2CCc3c([nH]c4ccccc34)C2c2ccc3c(c2)OCO3)cc1 (stereo not drawn) [Example 6, 1-(1-Benzo[1,3]dioxol-5-yl-1,3,4,9-tetrahydro-β-carbolin-2-yl)-1-(4-dimethylaminophenyl)methanone] | 670
3 | NC(=O)c1ccc(C(=O)N2CCc3c([nH]c4ccccc34)C2c2ccc3c(c2)OCO3)cc1 (stereo not drawn) [Example 7, 4-[1-(1-Benzo[1,3]dioxol-5-yl-1,3,4,9-tetrahydro-β-carbolin-2-yl)methanoyl]benzamide] | 550
4 | O=C(C#Cc1ccccc1)N1CCc2c([nH]c3ccccc23)C1c1ccc2c(c1)OCO2 (stereo not drawn) [Example 8, 1-(1-Benzo[1,3]dioxol-5-yl-1,3,4,9-tetrahydro-β-carbolin-2-yl)-3-phenylpropynone] | 190
5 | Nc1ccccc1CCC(=O)N1CCc2c([nH]c3ccccc23)C1c1ccc2c(c1)OCO2 (stereo not drawn) [Example 9, 3-(2-Aminophenyl)-1-(1-benzo[1,3]dioxol-5-yl-1,3,4,9-tetrahydro-β-carbolin-2-yl)propan-1-one] | 440
6 | O=C(Cc1ccccc1)Nc1ccc(C(=O)N2CCc3c([nH]c4ccccc34)C2c2ccc3c(c2)OCO3)cc1 (stereo not drawn) [Example 10, N-{4-[1-(1-Benzo[1,3]dioxol-5-yl-1,3,4,9-tetrahydro-β-carbolin-2-yl)methanoyl]phenyl}-2-phenylacetamide] | 760
7 | O=C(CCc1ccccc1)N1CCc2c([nH]c3ccccc23)C1c1ccc2c(c1)OCO2 (stereo not drawn) [Example 11, 1-(1-Benzo[1,3]dioxol-5-yl-1,3,4,9-tetrahydro-β-carbolin-2-yl)-3-phenylpropan-1-one] | 440
8 | O=C(/C=C/c1cccc(CCC(=O)N2CCc3c([nH]c4ccccc34)C2c2ccc3c(c2)OCO3)c1)N1CCc2c([nH]c3ccccc23)C1c1ccc2c(c1)OCO2 (centres unmarked) [Example 13a] | 480
9 | O=C(/C=C/c1ccc(CCC(=O)N2CCc3c([nH]c4ccccc34)C2c2ccc3c(c2)OCO3)cc1)N1CCc2c([nH]c3ccccc23)C1c1ccc2c(c1)OCO2 (centres unmarked) [Example 13b] | 20
10 | O=C(c1ccc(-c2cccnc2)s1)N1CCc2c([nH]c3ccccc23)C1c1ccc2c(c1)OCO2 (centres unmarked) [Example 18] | 110
11 | O=C(c1ccc(-c2ccccc2)s1)N1CCc2c([nH]c3ccccc23)C1c1ccc2c(c1)OCO2 (centres unmarked) [Example 19] | 250
12 | COc1ccc(C2c3[nH]c4ccccc4c3CCN2C(=O)c2cc3ccccc3s2)cc1Cl (centres unmarked) [Example 20] | 420
13 | O=C(c1cc2cc([N+](=O)[O-])ccc2s1)N1CCc2c([nH]c3ccccc23)C1c1ccc2c(c1)OCO2 (centres unmarked) [Example 21] | 130
14 | Nc1ccc2sc(C(=O)N3CCc4c([nH]c5ccccc45)C3c3ccc4c(c3)OCO4)cc2c1 (centres unmarked) [Example 22] | 80
15 | O=C(Cc1csc2ccccc12)N1CCc2c([nH]c3ccccc23)C1c1ccc2c(c1)OCO2 (stereo not drawn) [Example 23, 2-Benzo[b]thiophen-3-yl-1-(1-benzo[1,3]dioxol-5-yl-1,3,4,9-tetrahydro-β-carbolin-2-yl)ethanone] | 360
16 | CC(=O)Nc1ccc2sc(C(=O)N3CCc4c([nH]c5ccccc45)C3c3ccc4c(c3)OCO4)cc2c1 (centres unmarked) [Example 24] | 30
17 | O=C(CCl)Nc1ccc2sc(C(=O)N3CCc4c([nH]c5ccccc45)C3c3ccc4c(c3)OCO4)cc2c1 (centres unmarked) [Example 25] | 40
18 | O=C(c1ccsc1)N1CCc2c([nH]c3ccccc23)C1c1ccc2c(c1)OCO2 (centres unmarked) [Example 26] | 900
19 | O=C(CN1CCOCC1)Nc1ccc2sc(C(=O)N3CCc4c([nH]c5ccccc45)C3c3ccc4c(c3)OCO4)cc2c1 (centres unmarked) [Example 27] | 40

Continued, values first:

Row | IC50 [nM] | SMILES
20 | 120 | CN1CCN(CC(=O)Nc2ccc3sc(C(=O)N4CCc5c([nH]c6ccccc56)C4c4ccc5c(c4)OCO5)cc3c2)CC1 (centres unmarked) [Example 28]
21 | 300 | O=C(CN1CCCCC1)Nc1ccc2sc(C(=O)N3CCc4c([nH]c5ccccc45)C3c3ccc4c(c3)OCO4)cc2c1 (centres unmarked) [Example 29]
22 | 60 | COC(=O)CC(=O)Nc1ccc2sc(C(=O)N3CCc4c([nH]c5ccccc45)C3c3ccc4c(c3)OCO4)cc2c1 (centres unmarked) [Example 30]
23 | 40 | O=C(Cn1ccnc1)Nc1ccc2sc(C(=O)N3CCc4c([nH]c5ccccc45)C3c3ccc4c(c3)OCO4)cc2c1 (centres unmarked) [Example 31]
24 | 480 | O=C(c1cc2cccc(Br)c2s1)N1CCc2c([nH]c3ccccc23)C1c1ccc2c(c1)OCO2 (centres unmarked) [Example 32]
25 | 200 | O=C(c1cc2c([N+](=O)[O-])cccc2s1)N1CCc2c([nH]c3ccccc23)C1c1ccc2c(c1)OCO2 (centres unmarked) [Example 33]
26 | 460 | O=C(c1ccc([N+](=O)[O-])s1)N1CCc2c([nH]c3ccccc23)C1c1ccc2c(c1)OCO2 (centres unmarked) [Example 34]
27 | 410 | O=C(c1cc2c(Br)cccc2s1)N1CCc2c([nH]c3ccccc23)C1c1ccc2c(c1)OCO2 (centres unmarked) [Example 35]
28 | 110 | CC(=O)c1ccc(C(=O)N2CCc3c([nH]c4ccccc34)C2c2ccc3c(c2)OCO3)s1 (centres unmarked) [Example 36]
29 | 40 | COc1ccc2cc(C(=O)N3CCc4c([nH]c5ccccc45)C3c3ccc4c(c3)OCO4)sc2c1 (centres unmarked) [Example 37]
30 | 30 | COc1ccc2sc(C(=O)N3CCc4c([nH]c5ccccc45)C3c3ccc4c(c3)OCO4)cc2c1 (centres unmarked) [Example 38]
31 | 400 | O=C(c1ccc(CN2CCOCC2)s1)N1CCc2c([nH]c3ccccc23)C1c1ccc2c(c1)OCO2 (centres unmarked) [Example 39]
32 | 320 | COCc1ccc(C(=O)N2CCc3c([nH]c4ccccc34)C2c2ccc3c(c2)OCO3)s1 (centres unmarked) [Example 40]
33 | 240 | CN(C)CC(=O)Nc1ccc(C(=O)N2CCc3c([nH]c4ccccc34)C2c2ccc3c(c2)OCO3)o1 (centres unmarked) [Example 41]
34 | 850 | CN(C)Cc1ccc(C(=O)N2CCc3c([nH]c4ccccc34)C2c2ccc3c(c2)OCO3)s1 (centres unmarked) [Example 42]
35 | 290 | CN(C)Cc1ccc2sc(C(=O)N3CCc4c([nH]c5ccccc45)C3c3ccc4c(c3)OCO4)cc2c1 (centres unmarked) [Example 43]
36 | 490 | Nc1ccc(C(=O)N2CCc3c([nH]c4ccccc34)C2c2ccc3c(c2)OCO3)s1 (centres unmarked) [Example 44]
37 | 5 | COc1cc2nc(N3CCc4c([nH]c5ccccc45)C3c3ccc4c(c3)OCO4)[nH]c(=O)c2cc1OC (stereo not drawn) [Example 46, 2-(1-Benzo[1,3]dioxol-5-yl-1,3,4,9-tetrahydro-β-carbolin-2-yl) -6,7-dimethoxy-3H-quinazolin-4-one]
38 | 27 | COc1cc2nc(N3CCc4c([nH]c5ccccc45)C3c3ccc4c(c3)OCO4)nc(Cl)c2cc1OC (stereo not drawn) [Example 47a, 1-Benzo[1,3]dioxol-5-yl-2-(4-chloro-6,7-dimethoxyquinazolin-2-yl)-2,3,4,9-tetrahydro-1H-β-carboline]
39 | 5 | COc1cc2cnc(N3CCc4c([nH]c5ccccc45)C3c3ccc4c(c3)OCO4)nc2cc1OC (stereo not drawn) [Example 47b, 1-Benzo[1,3]dioxol-5-yl-2-(6,7-dimethoxyquinazolin-2-yl)-2,3,4,9-tetrahydro-1H-β-carboline]
40 | 20 | O=C(O)CC(=O)Nc1ccc2sc(N3CCc4c([nH]c5ccccc45)C3c3ccc4c(c3)OCO4)cc2c1 (centres unmarked) [Example 48]
41 | 10 | COc1ccc(-c2ccnc(N3CCc4c([nH]c5ccccc45)C3c3ccc4c(c3)OCO4)n2)cc1 (centres unmarked) [Example 49]
